Measurements as given in US20030004131A1, “OENOTHEIN MEDICAMENTS” (priority 1999, published 2003).

Legend:
[1] = tested on: hen's-egg chorioallantoic membrane (CAM); test: hen's-egg chorioallantoic membrane (CAM) irritation model with 15% lactic acid as standard irritant; type: in vivo; settings: CAM treated with 15% lactic acid; sample applied before the irritant (prophylactic use); oenothein-B tested at 1% (weight to volume) dilution
Experimental: In the hen's-egg chorioallantoic membrane (CAM) model, in which the CAM is treated with 15% lactic acid as a standard irritant, the development of manifestations of membrane irritation were tracked and scored according to published methods for assessing irritancy (Luepke and Kemper, 1986, Food and Chemical Toxicology 24:495; Spielmann et al. 1997, Food and Chemical Toxicology 35:39). A sample of the oenothein-B extract from Canadian Willowherb described in Example 1 was tested at a 1% (weight to volume) dilution for activity in the CAM model.

[2] = xanthine oxidase/acetaldehyde spectrophotometric superoxide radical scavenging method; type: biochemical
Experimental: The scavenging of free superoxide radicals is quantitated spectrometrically and expressed in terms of percentage of radicals scavenged. Assays were performed with 1% (w/v) and 0.1% (w/v) dilutions of the dried extract, which yielded up to 100% scavenging activity and up to 99% scavenging activity respectively.

Substance: oenothein-B
- decrease in irritation [1]: up to 70%
- scavenging activity (percentage of radicals scavenged) ([2]; 0.1% (w/v) dilution of the dried extract): up to 99%
- scavenging activity (percentage of radicals scavenged) ([2]; 1% (w/v) dilution of the dried extract): up to 100%
